Source: patent US9926318B2, “Tetracyclic autotaxin inhibitors” (PharmAkea, Inc., priority 2013, dated 2018)

tested on: not listed separately; assay: rat male reproductive tissue toxicity study; assay type: in vivo; details: dosed at 300 mpk PO for 5 days
Method: In some embodiments, male reproductive tissue toxicity can be assessed in suitable in vivo models. In some embodiments, male reproductive tissue toxicity is assessed by monitoring any decreases in the testes weight and/or epididymis weight.

Structure (SMILES) | decreases in the testes weight (as a percentage of body weight)
O=C(O)CCCN1C(=O)C2Cc3c(n(Cc4ccc(F)cc4)c4ccccc34)CN2C1=O (racemic) [Compound 1-1, 4-(6-(4-fluorobenzyl)-1,3-dioxo-11,11a-dihydro-1H-imidazo[1′,5′:1,6]pyrido[3,4-b]indol-2(3H,5H,6H)-yl)butanoic acid] | no decreases in the testes weight
O=C1NC(=O)N2Cc3c(c4ccccc4n3Cc3ccc(F)cc3)CC12 (racemic) [Compound 1-15, 6-(4-fluorobenzyl)-5,6,11,11a-tetrahydro-1H-imidazo[1′,5′:1,6]pyrido[3,4-b]indole-1,3(2H)-dione] | no decreases in the testes weight

same assay, conditions: rat male reproductive tissue toxicity study

Structure (SMILES) | decreases in testes weight
O=C(O)CCCN1C(=O)C2Cc3c(n(Cc4ccc(F)cc4)c4ccccc34)CN2C1=O (racemic) [Compound 1-1, 4-(6-(4-fluorobenzyl)-1,3-dioxo-11,11a-dihydro-1H-imidazo[1′,5′:1,6]pyrido[3,4-b]indol-2(3H,5H,6H)-yl)butanoic acid] | did not exhibit the same effects
O=C(O)CCN1C(=O)[C@@H]2Cc3c(n(Cc4ccc(F)cc4)c4ccccc34)CN2C1=O [Compound 1-5, (S)-3-(6-(4-fluorobenzyl)-1,3-dioxo-5,6,11,11a-tetrahydro-1H-imidazo[1′,5′:1,6]pyrido[3,4-b]indol-2(3H)-yl)propanoic acid] | undesired decreases in testes weight
O=C1NC(=O)N2Cc3c(c4ccccc4n3Cc3ccc(F)cc3)CC12 (racemic) [Compound 1-15, 6-(4-fluorobenzyl)-5,6,11,11a-tetrahydro-1H-imidazo[1′,5′:1,6]pyrido[3,4-b]indole-1,3(2H)-dione] | did not exhibit the same effects

target: human autotaxin (ATX) (Homo sapiens (Human), UniProt Q13822); assay: Human autotaxin assay (choline release from LPC, Hep3B conditioned media); assay type: biochemical; details: concentrated conditioned media from Hep3B cells, LPC substrate
Method: ATX activity is assayed in concentrated conditioned media from Hep3B human hepatocellular carcinoma cells by measuring the amount of choline released from the substrate, lysophosphatidylcholine (LPC) as it is cleaved to LPA. Conditioned media is collected from confluent Hep3B cells and concentrated 20-fold using Centriprep-30 filter devices (Millipore). […] 100 μl of a color mix containing 4.5 mM 4-aminoantipyrine, 2.7 mM N-ethyl-N-(2-hydroxy-3-sulfopropyl)-m-toluidine, 21 units/ml horseradish peroxidase and 3 units/ml choline oxidase in 50 mM Tris, pH 8, 4.5 mM MgCl2 is added and the incubation continued for 15 minutes at room temperature before reading the absorbance at 555 nm.

Structure (SMILES) | IC50 [nM]
O=C(O)CCN1C(=O)[C@@H]2Cc3c(n(Cc4cnc(C(F)(F)F)s4)c4ccccc34)CN2C1=O [Compound 1-102, (S)-3-(1,3-dioxo-6-((2-(trifluoromethyl)thiazol-5-yl)methyl)-11,11a-dihydro-1H-imidazo[1′,5′:1,6]pyrido[3,4-b]indol-2(3H,5H,6H)-yl)propanoic acid] | < 500
O=C(CCN1C(=O)[C@@H]2Cc3c(n(Cc4ccc(F)cc4)c4ccccc34)CN2C1=O)NS(=O)(=O)c1ccccc1 [Compound 1-143, (S)-3-(6-(4-fluorobenzyl)-1,3-dioxo-11,11a-dihydro-1H-imidazo[1′,5′:1,6]pyrido[3,4-b]indol-2(3H,5H,6H)-yl)-N-(phenylsulfonyl)propanamide] | < 500
CC(C)(CC(=O)O)CN1C(=O)[C@@H]2Cc3c(n(Cc4ccc(F)cc4)c4ccccc34)CN2C1=O [Compound 1-42, (S)-4-(6-(4-fluorobenzyl)-1,3-dioxo-5,6,11,11a-tetrahydro-1H-imidazo[1′,5′:1,6]pyrido[3,4-b]indol-2(3H)-yl)-3,3-dimethylbutanoic acid] | < 500
O=C(O)CCCN1C(=O)C2Cc3c(n(Cc4ccc(F)cc4)c4ccccc34)CN2C1=O (racemic) [Compound 1-1, 4-(6-(4-fluorobenzyl)-1,3-dioxo-11,11a-dihydro-1H-imidazo[1′,5′:1,6]pyrido[3,4-b]indol-2(3H,5H,6H)-yl)butanoic acid] | < 500
O=C(O)CCN1C(=O)N2Cc3c(c4ccccc4n3Cc3ccc(F)cc3)C[C@H]2C1=S [Compound 1-141, (S)-3(6-(4-fluorobenzyl)-3-oxo-1-thioxo-5,6,11,11a-tetrahydro-1H-imidazo[1′,5′:1,6]pyrido[3,4-b]indol-2(3H)-yl)propanoic acid] | > 1000
O=C1OC[C@H]2Cc3c(n(Cc4ccc(F)cc4)c4ccccc34)CN12 [Compound 1-10, (R)-6-(4-fluorobenzyl)-5,6,11,11a-tetrahydrooxazolo[3′,4′:1,6]pyrido[3,4-b]indol-3(1H)-one] | > 1000
CC(C)(CN1C(=O)C2Cc3c(n(Cc4ccc(F)cc4)c4ncccc34)CN2C1=O)C(=O)O (stereo not shown) [Compound C111, 3-{8-[(p-fluorophenyl)methyl]-12,14-dioxo-6.8.11.13-tetrazatetracyclo[7.7.0.02,7.011,15]hexadeca-1(9),2(7),3,5-tetraene-13-yl}-2,2-dimethyl propionic acid] | < 500
O=C1NC(=O)N2Cc3c(c4ccccc4n3Cc3ccc(F)cc3)CC12 (racemic) [Compound 1-15, 6-(4-fluorobenzyl)-5,6,11,11a-tetrahydro-1H-imidazo[1′,5′:1,6]pyrido[3,4-b]indole-1,3(2H)-dione] | < 500
O=C(O)CN1C(=O)C2Cc3c(n(Cc4ccc(F)cc4)c4ccccc34)CN2C1=O (stereo not shown) [Compound 1-19, 2-(6-(4-fluorobenzyl)-1,3-dioxo-5,6,11,11a-tetrahydro-1H-imidazo[1′,5′:1,6]pyrido[3,4-b]indol-2(3H)-yl)acetic acid] | < 500
O=C(O)CN1CC2Cc3c(n(Cc4ccc(F)cc4)c4ccccc34)CN2C1=O (racemic) [Compound 1-20, 2-(6-(4-fluorobenzyl)-3-oxo-11,11a-dihydro-1H-imidazo[1′,5′:1,6]pyrido[3,4-b]indol-2(3H,5H,6H)-yl)acetic acid] | 500 to 1000
CS(=O)(=O)NC(=O)CCN1C(=O)[C@@H]2Cc3c(n(Cc4ccc(F)cc4)c4ccccc34)CN2C1=O [Compound 1-142, (S)-3-(6-(4-fluorobenzyl)-1,3-dioxo-11,11a-dihydro-1H-imidazo[1′,5′:1,6]pyrido[3,4-b]indol-2(3H,5H,6H)-yl)-N-(methylsulfonyl)propanamide] | < 500
O=C(O)CCN1C(=O)[C@@H]2Cc3c(n(Cc4ccc(F)cc4)c4ccccc34)CN2C1=S [Compound E1, (S)-3-(6-(4-fluorobenzyl)-1-oxo-3-thioxo-5,6,11,11a-tetrahydro-1H-imidazo[1′,5′:1,6]pyrido[3,4-b]indol-2(3H)-yl)propanoic acid] | > 1000
O=C1[C@@H]2Cc3c(n(Cc4ccc(F)cc4)c4ccccc34)CN2C(=O)N1CC1(C(=O)O)CC1 [Compound 1-34, (S)-1-((6-(4-fluorobenzyl)-1,3-dioxo-5,6,11,11a-tetrahydro-1H-imidazo[1′,5′:1,6]pyrido[3,4-b]indol-2(3H)-yl)methyl)cyclopropane-1-carboxylic acid] | < 500
O=C(O)CN1CC(=O)N2Cc3c(c4ccccc4n3Cc3ccc(F)cc3)CC2C1=O (racemic) [Compound 1-23, 2-(7-(4-fluorobenzyl)-1,4-dioxo-3,4,6,7,12,12a-hexahydropyrazino[1′,2′:1,6]pyrido[3,4-b]indol-2(1H)-yl)acetic acid] | < 500
CC12Cc3c(n(Cc4ccc(F)cc4)c4ccccc34)CN1C(=O)N(CCC(=O)O)C2=O (stereo not shown) [Compound A113, 3-(6-(4-fluorobenzyl)-11a-methyl-1,3-dioxo-11,11a-dihydro-1H-imidazo[1′,5′:1,6]pyrido[3,4-b]indol-2(3H,5H,6H)-yl)propanoic acid] | > 1000
O=C1OC[C@@H]2Cc3c(n(Cc4ccc(F)cc4)c4ccccc34)CN12 [Compound 1-9, (S)-6-(4-fluorobenzyl)-5,6,11,11a-tetrahydrooxazolo[3′,4′:1,6]pyrido[3,4-b]indol-3(1H)-one] | < 500
COc1ccc(Cn2c3c(c4ccccc42)C[C@H]2C(=O)N(CCC(=O)O)C(=O)N2C3)cn1 [Compound 1-12, (S)-3-(6-((6-methoxypyridin-3-yl)methyl)-1,3-dioxo-11,11a-dihydro-1H-imidazo[1′,5′:1,6]pyrido[3,4-b]indol-2(3H,5H,6H)-yl)propanoic acid] | < 500
CC1(C)c2c(n(Cc3ccc(F)cc3)c3ccccc23)CN2C(=O)NC(=O)C21 (racemic) [Compound A110, 6-(4-fluorobenzyl)-11,11-dimethyl-5,6,11,11a-tetrahydro-1H-imidazo[1′,5′:1,6]pyrido[3,4-b]indole-1,3(2H)-dione] | < 500
O=C(O)CCN1C(=O)[C@@H]2Cc3c(n(Cc4ccc(Cl)nc4)c4ccccc34)CN2C1=O [Compound 1-84, (S)-3-(6-((6-chloropyridin-3-yl)methyl)-1,3-dioxo-5,6,11,11a-tetrahydro-1H-imidazo[1′,5′:1,6]pyrido[3,4-b]indol-2(3H)-yl)propanoic acid] | < 500
COc1ccc(Cn2c3c(c4ccccc42)C[C@H]2C(=O)N(CCC(=O)O)C(=O)N2C3)cc1 [Compound 1-131, (S)-3-(6-(4-methoxybenzyl)-1,3-dioxo-11,11a-dihydro-1H-imidazo[1′,5′:1,6]pyrido[3,4-b]indol-2(3H,5H,6H)-yl)propanoic acid] | < 500
O=C(O)CCN1C(=O)[C@@H]2Cc3c(n(Cc4ccc(F)nc4)c4ccccc34)CN2C1=O [Compound 1-135, (S)-3-(6-((6-fluoropyridin-3-yl)methyl)-1,3-dioxo-11,11a-dihydro-1H-imidazo[1′,5′:1,6]pyrido[3,4-b]indol-2(3H,5H,6H)-yl)propanoic acid] | < 500
CC1(C)c2c(n(Cc3ccc(F)cc3)c3ccccc23)CN2C(=O)N(CCC(=O)O)C(=O)C21 (stereo not shown) [Compound A11, 3-(6-(4-fluorobenzyl)-11,11-dimethyl-1,3-dioxo-5,6,11,11a-tetrahydro-1H-imidazo[1′,5′:1,6]pyrido[3,4-b]indol-2(3H)-yl)propanoic acid] | < 500
O=C1NC(=O)N2Cc3c(c4cccnc4n3Cc3ccc(F)cc3)CC12 (stereo not shown) [Compound C109] | < 500
